The values below come from publication PMC10447463, “Data-mining unveils structure–property–activity correlation of viral infectivity enhancing self-assembling peptides” (Nature Communications, 2023).

The format of series [1] is physicochemical. On the set-up: key to Fibril / Fibril Formation / TEM 2cat / Fibril: 1 = fibrils present; 0 non-fibrillar structures. Conditions: for Fibril / Fibril Formation: TEM, 1 mg/mL, uranyl acetate stain, qualitative.
The format of series [2] is physicochemical. To be noted: for ThT Cat. / ThT-Fluorescence (categorical): ThT-active if fluorescence at least twice the control. In short, it runs like this:
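Fibrils (1 mg/mL solution) were mixed with 50 µM ThT in PBS for 15 min at RT, and fluorescence was read at λex 440/λem 488 nm against a PBS blank, as a triplicate mean ± SD. Zeta potential came from electrophoretic mobility (Smoluchowski) after 1 d aggregation at 1 mg/mL in PBS pH 7.4, diluted into 1 mM KCl.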

Series [3] is described as follows: Turbidity, derived count rate of scattered light. The class given is physicochemical. To be noted: log10 of derived count rate of scattered light, Figure 7B.

Turning to DFNKF [reference compound], the “Fibril / Fibril Formation” value in series [1] is 1. For the same substance, the “ThT Cat. / ThT-Fluorescence (categorical)” value (“ThT Cat. / ThT-Fluorescence” for short) in series [2] is 0 (ThT-inactive (N-Fold <2)). Moreover, in series [3], the “Log10 Count Rate” value was 3.027.
As to GAITIG-NH2 [reference compound], the “Fibril / Fibril Formation” value in series [1] was determined as 0. Also, in series [2], the “ThT Cat. / ThT-Fluorescence” value was 0 (ThT-inactive (N-Fold <2)). Moreover, in series [3], the “Log10 Count Rate” value was 1.474.
As to GNNQQNY [reference compound], the “Fibril / Fibril Formation” value in series [1] is recorded as 0. The “ThT Cat. / ThT-Fluorescence” value in series [2] was 0 (ThT-inactive (N-Fold <2)). The “Log10 Count Rate” value in series [3] was 1.572.
For GQTVTK [reference compound], in that order: 0, 0 (ThT-inactive (N-Fold <2)) and 1.536.
For the substance IIKIIK [reference compound], the “Fibril / Fibril Formation” value in series [1] stood at 0. Besides, in series [2], the “ThT Cat. / ThT-Fluorescence” value was 0 (ThT-inactive (N-Fold <2)). Also, the “Log10 Count Rate” value in series [3] was 0.6128.
The like results for NSGAITIG-NH2 [reference compound] were, in that order, 0, 0 (ThT-inactive (N-Fold <2)) and 1.294.
With RCELARTLKR [reference compound], in series [1], the “Fibril / Fibril Formation” value amounted to 0. Besides, the “ThT Cat. / ThT-Fluorescence” value in series [2] is 0 (ThT-inactive (N-Fold <2)). The “Log10 Count Rate” value in series [3] came out at 1.893.
Take RIRIQIC [PS07]: the “TEM: 1= fibrils, 0= aggregates (micelle), 0.5 = aggregates and fibrils, -1 = nothing obersved, STD prep” value in series [1] (STD prep) came out at 1. Besides, the “Tht rel to blank (42.1851851851852)” value in series [2] (ThT fluorescence relative to blank, blank = 42.1851851851852) worked out at 1.32. Besides, the “Tht category (> 1.5 to blank = +)” value in series [2] (category 1/0) was 0 (ThT-inactive (N-Fold <2)).
Regarding VLYVGSKT [reference compound], in series [1], the “Fibril / Fibril Formation” value amounted to 0. Also, in series [2], the “ThT Cat. / ThT-Fluorescence” value was 0 (ThT-inactive (N-Fold <2)). Also, in series [3], the “Log10 Count Rate” value is on record as 1.386.
With VQIVYK [reference compound], the “Fibril / Fibril Formation” value in series [1] is recorded as 0. Moreover, the “ThT Cat. / ThT-Fluorescence” value in series [2] was 0 (ThT-inactive (N-Fold <2)). The “Log10 Count Rate” value in series [3] turned out to be 1.414.
